Blank lines part the entries; values can stand above or below the compound they belong to.
Columns and labels:
[1] = system: SK-N-AS cells; test: ALAMARBLUE assay of plated cells after freeze-thaw of suspended cells; type: cell-based, Human; details: for cell viability after freeze-thawing on decreasing the concentration of PBS: hypotonic conditions, FIG. 11
Experimental: The cells were plated on a 96-well plate in a density of 2.25×10^5 cells/cm^2 and diluted with medium to the final volume of 200 μL inside the well. The cells were then incubated overnight at 37° C. and 5% CO2 so they attached to the wells. Cells were stained with 10 μL ALAMARBLUE® reagent per 100 μL of medium in the well and incubated for 4 h. Same procedure was applied for a blank, where 200 μL of medium was pipetted into the well. After that, 100 μL of solution above the cells was pipetted into a black non-transparent 96-well plate and fluorescence was measured with SPECTRAMAX® plate reader (excitation λ=550 nm, emission λ=590 nm).
(§1) Formulations were prepared in 50 mL Falcon tubes and subsequently sterile filtered under the bench with 0.22 μm syringe filter and a syringe. Sterile formulations were then stored at 2-8° C. until further use. 0.5 mL of cell suspension in either PBS or medium at a concentration of 20*10^6 cells/mL was mixed with 0.5 mL of pre-warmed sterile formulation. Vials were then stoppered and stored in a −80° C. freezer for minimum overnight.
(§2) Subsequently, the vials were taken from the −80° C. freezer and rapidly thawed in the water bath at 37° C. Immediately after thawing, 0.1 mL of cell suspension was 2× diluted with medium and counted with NucleoCounter to obtain cell viability [%] and concentration inside the vial. Suspension was then plated on a 96-well plate so the cell density was 2.25×10^5 cells/cm^2 (growth area in one well is 0.32 cm^2). Calculation of the volume (V) of cell suspension is according to following equation: […]
Calculated volume was diluted inside of the well with cell growth medium, so that the final volume was 0.2 mL. 96-well plate with samples was incubated overnight in the incubator and ALAMARBLUE® assay was performed the morning after (if not stated differently in the results section).
ALAMARBLUE® on the other hand, contains a reagent called resazurin. This is a non-toxic, blue, weakly fluorescent dye, which can permeate cell membranes. Resazurin undergoes a metabolic reduction inside of the cell to a form called resorufin, which is pink and highly fluorescent. The intensity of fluorescence is proportional to the amount of cells that are able to metabolize resazurin and are thus considered viable.

[2] = Freeze drying, visual inspection of lyophilization cake; type: physicochemical; details: 1M propylene glycol and 0.1M trehalose formulation; FIG. 21B
Experimental: Freeze drying was performed with the SP Scientific's LyoStar 3 pilot scale freeze dryer with 0.4 m^2 of shelf surface area. Vials were filled and loaded on a tray under the biosafety bench and then loaded in the freeze dryer. Vials were left on the tray inside the lyophilizer, to avoid any spillage of biomaterial inside the chamber in case of a vial breakage.
Employed conservative lyophilization programs (Table 3 and Table 4) included freezing and primary drying steps. Since it is known from literature, that complete elimination of water and higher temperatures employed during secondary drying negatively impact the cell survival during process, the step was omitted. The product temperature was monitored by including a thermocouple inside the vial, so that its tip touched the bottom of the vial. After unloading of the vials from the lyophilizer, they were visually inspected.

[3] = system: SK-N-AS cells; test: DAPI/acridine orange viability (NUCLEOCOUNTER) directly after freeze-thaw; type: cell-based, Human; details: directly after thawing, FIG. 6
Experimental: 200 μL of cell suspension was pipetted into 1.5 mL Eppendorf tube and diluted with medium. Diluted suspension was then pipetted with VIAL-[…]™ and inserted into the NUCLEOCOUNTER® for measurement.
as §1, §2
Next, we compared two methods for determining viability and noticed a large discrepancy in obtained results (FIG. 5 and FIG. 6). The reason for this is the difference in underlying principles of viability assessment of both methods. As previously, DAPI/acridine orange staining is performed using NUCLEOCOUNTER®, which is an integrated fluorescence microscope with dual fluorescence channels. One is for staining with acridine orange and the other with DAPI dye. They both bind to DNA and label cellular nuclei with high specificity. Acridine orange can permeate the cell membrane and is used for cell detection, while DAPI cannot permeate the membrane and binds only to nuclei of dead cells with disrupted membrane. Thus, the cell viability according to the DAPI/acridine orange method, is mostly based on the integrity of cell membranes. Dyes are fluorescent and therefore visible when using fluorescence filters in microscope, while cell debris and other particles without DNA are not visible. The software then identifies and analyses the individual cells (even within smaller aggregates) and calculates the viability, by comparing the ratio of signal with Acridine Orange and DAPI staining (according to equation below).

Structure (SMILES): C[S+](C)[O-] [DMSO, Dimethyl Sulfoxide, reference compound]
cell viability compared to the untreated control ([1]; 5% DMSO, internal data): over 80%

Structure (SMILES): OCC(O)CO [glycerol, Glycerol]
cell density after freeze-thaw compared with 5% DMSO formulation in medium ([1]; glycerol formulation in medium, FIG. 8A): not significantly worse than 5% DMSO formulation

Structure (SMILES): OCCO [ethylene glycol, Ethylene glycol]
densities of plated cells after thawing, 1M ethylene glycol vs 1M propylene glycol ([1]; 1M, FIG. 8B): not significantly different | cell density after thawing vs propylene glycol, ANOVA and t-test ([1]; formulation in medium, P<0.05): significantly worse than propylene glycol | cell viability after freeze-thawing on decreasing the concentration of PBS [1]: decrease in cell viability

appearance of lyophilizate [2]: remained in liquid form
Structure (SMILES): CC(O)CO (centres unmarked) [propylene glycol, Propylene glycol]
viability after FT of cells (DAPI/acridine testing) ([3]; 0.1M propylene glycol): around 50% | viability after FT of cells (DAPI/acridine testing) ([3]; 0.2M propylene glycol): around 50% | viability after FT of cells (DAPI/acridine testing) ([3]; 1M propylene glycol): ~100% | viability after FT of cells (DAPI/acridine testing) ([3]; 2M propylene glycol): ~100% | optimisation of propylene glycol concentration, viability by ALAMARBLUE ([1]; 1M concentration, FIG. 7B): most favourable | relative viability to control (untreated cells) after freeze thawing ([1]; 5% (v/v) in cell medium, FIG. 7A): efficient in protecting the cells compared to other tested excipients | cell viability of treated cells relative to untreated cells (metabolic assay) ([1]; after FT, compared with DAPI/acridine results, FIG. 5): much lower cell viability | cell viability after freeze-thawing on decreasing the concentration of PBS [1]: decrease in cell viability

Reference: US20220338463A1, “METHOD OF PRODUCING LYOPHILIZED CELLS” (LONZA LTD, priority 2019, published 2022)
